Laboratory results from publication PMC12655637, “Design, Synthesis, and Mechanistic Study of Novel Ciprofloxacin/Thiazole Chalcone Hybrids as Potential Anticancer Agents” (Pharmaceuticals, 2025).
pIC50: −log10 of the molar value.

How the values were obtained:
Assay in all cases: NCI-60 screening, one-dose (10 µM) and five-dose, SRB
SK-MEL-2 = assay type: cell-based, human; settings: Homo sapiens; 10 μM; SK-MEL-2, Melanoma; read-out: Growth percentage
OVCAR-4 = assay type: cell-based, human; settings: Homo sapiens; 10 μM; OVCAR-4, Ovarian Cancer; read-out: Growth percentage
MDA-MB-468 = assay type: cell-based, human; settings: Homo sapiens, MDA-MB-468, 10 μM; MDA-MB-468, Breast Cancer; read-out: Growth percentage
Source text: Control cells Test cells FLD
available usually at NCI library.
An aliquot of frozen drug concentrate is […]

KM12 = assay type: cell-based, human; settings: Homo sapiens, KM12, 10 μM; KM12, Colon Cancer; read-out: Growth percentage
HOP-92 = assay type: cell-based, human; settings: Homo sapiens; 10 μM; HOP-92, Non-Small-Cell Lung Cancer; read-out: Growth percentage
MCF7 = assay type: cell-based, human; settings: Homo sapiens, MCF7, 10 μM; MCF7, Breast Cancer; read-out: Growth percentage
NCI-H23 = assay type: cell-based, human; settings: Homo sapiens; 10 μM; NCI-H23, Non-Small-Cell Lung Cancer; read-out: Growth percentage
MDA-MB231/ATCC = assay type: cell-based; settings: 10 μM; MDA-MB231/ATCC, Breast Cancer
SF-295 = assay type: cell-based, human; settings: Homo sapiens; 10 μM; SF-295, CNS Cancer; read-out: Growth percentage
ACHN = assay type: cell-based, human; settings: Homo sapiens, 10 μM, Renal Cancer, read-out: Growth percentage
SN12C = assay type: cell-based, human; settings: Homo sapiens, 10 μM, Renal Cancer, read-out: Growth percentage
HCC-2998 = assay type: cell-based, human; settings: Homo sapiens; 10 μM; HCC-2998, Colon Cancer; read-out: Growth percentage
TK-10 = assay type: cell-based, human; settings: Homo sapiens; 10 μM; TK-10, Renal Cancer; read-out: Growth percentage
HS 578T = assay type: cell-based, human; settings: Homo sapiens, 10 μM, Breast Cancer, read-out: Growth percentage
NCI-H460 = assay type: cell-based, human; settings: Homo sapiens, NCI-H460, 10 μM; NCI-H460, Non-Small-Cell Lung Cancer; read-out: Growth percentage
CCRF-CEM = assay type: cell-based, human; settings: Homo sapiens, 10 μM, Leukemia, read-out: Growth percentage
K-562 = assay type: cell-based, human; settings: Homo sapiens, K562, 10 μM; K-562, Leukemia; read-out: Growth percentage
SR = assay type: cell-based, human; settings: 10 μM, Leukemia
HCT-116 = assay type: cell-based, human; settings: Homo sapiens
CAKI-1 = assay type: cell-based; settings: Homo sapiens, CAKI-1, read-out: Growth percentage
RPMI-8226 = assay type: cell-based, human; settings: Homo sapiens, RPMI-8226, 10 μM; RPMI-8226, Leukemia; read-out: Growth percentage
SF-268 = assay type: cell-based, human; settings: Homo sapiens; 10 μM; SF-268, CNS Cancer; read-out: Growth percentage
NCI-H226 = assay type: cell-based, human; settings: Homo sapiens; 10 μM; NCI-H226, Non-Small-Cell Lung Cancer; read-out: Growth percentage
EKVX = assay type: cell-based, human; settings: Homo sapiens, 10 μM, Non-Small-Cell Lung Cancer, read-out: Growth percentage
SW-620 = assay type: cell-based, human; settings: Homo sapiens; 10 μM; SW-620, Colon Cancer; read-out: Growth percentage
UACC-257 = assay type: cell-based, human; settings: Homo sapiens; 10 μM; UACC-257, Melanoma; read-out: Growth percentage
786−0 = assay type: cell-based, human; settings: Homo sapiens; 10 μM; 786−0, Renal Cancer; read-out: Growth percentage
DU-145 = assay type: cell-based, human; settings: Homo sapiens; 10 μM; DU-145, Prostate Cancer; read-out: Growth percentage
RXF 393 = assay type: cell-based; settings: Homo sapiens; 10 μM; RXF 393, Renal Cancer; read-out: Growth percentage
COLO 205 = assay type: cell-based, human; settings: Homo sapiens; 10 μM; COLO 205, Colon Cancer; read-out: Growth percentage

Cc1nc(SCC(=O)N2CCN(c3cc4c(cc3F)c(=O)c(C(=O)O)cn4C3CC3)CC2)sc1C(=O)/C=C/c1ccc(Cl)cc1 [Compound 4c, (E)-7-(4-(2-((5-(3-(4-Chlorophenyl)acryloyl)-4-methylthiazol-2-yl)thio)acetyl)piperazin-1-yl)-1-cyclopropyl-6-fluoro-4-oxo-1,4-dihydroquinoline-3-carboxylic Acid]
activity at 10 µM (SK-MEL-2): 99.4% | activity at 10 µM (OVCAR-4): 107% | activity at 10 µM (MDA-MB-468): 110% | activity at 10 µM (KM12): 104% | activity at 10 µM (HOP-92): 119% | activity at 10 µM (MCF7): 52.9% | activity at 10 µM (NCI-H23): 96.5% | Growth percentage (MDA-MB231/ATCC): 100.1% | activity at 10 µM (SF-295): 102% | activity at 10 µM (ACHN): 96.4% | activity at 10 µM (SN12C): 96.7% | activity at 10 µM (HCC-2998): 104% | activity at 10 µM (TK-10): 106% | activity at 10 µM (HS 578T): 105% | activity at 10 µM (NCI-H460): 106% | activity at 10 µM (CCRF-CEM): 102% | activity at 10 µM (K-562): 93.1% | Growth percentage (SR): 35.32% | activity at 10 µM (HCT-116; HCT-116, 10 μM, HCT-116, Colon Cancer, read-out: Growth percentage): 61% | pIC50 (HCT-116; colon HCT-116): 6.47 | activity at 10 µM (CAKI-1): 100% | activity at 10 µM (RPMI-8226): 7.7% | activity at 10 µM (SF-268): 180% | activity at 10 µM (NCI-H226): 107% | activity at 10 µM (EKVX): 103% | activity at 10 µM (SW-620): 113% | activity at 10 µM (UACC-257): 117% | activity at 10 µM (786−0): 96.2% | activity at 10 µM (DU-145): 178% | activity at 10 µM (RXF 393): 109% | activity at 10 µM (COLO 205): 107%
